{"source": "patent US20240000700A1", "about": "“PLANT EXTRACTING METHOD” (GIVAUDAN SA, priority 2020, published 2024)", "tested_on": "NHEKs", "assay": "Anti-oxidant activity: ROS production (DCFH probe) under TBP stress", "type": "cell-based, human", "details": "TBP 5 mM; positive control at 200 μM, 24 h pre-incubation", "description": "NHEKs were seeded in a black plate with a glass bottom at 20′000 cells per well pre-coated with type I collagen. Cells were incubated at 37° C. with 5% CO2 for 24 h. On the next day, the cells were incubated for 24 h with the patchouli extracts and some of the fractions thereof described in examples 1 and 2 above, each at 0.5% (v/v), or Resveratrol (positive control) at 200 μM. After this pre-incubation, the cells were incubated with dichloro-dihydro-fluorescein (DCFH) probe at 50 μM for 30-45 min. The cells were then rinsed two times with PBS and incubated with PBS alone or with PBS containing 5 mM tert-butyl peroxide (TBP) to induce an oxidative stress. Fluorescence reading was performed every 10 min for 1 h, exciting at 488 nm and emitting at 525 nm."}
{"smiles": "Oc1ccc(C=Cc2cc(O)cc(O)c2)cc1", "note": "[Resveratrol]", "values": [{"measurement": "ROS Production [% of TBP, untreated] Average", "result": "18 % of TBP, untreated"}]}
